Assay results published in ChEMBL document CHEMBL1201862, “PubChem BioAssay data set” (2004).
Calls of active or inactive are those of the source.

Key:
[1] = biological target: T1, Voltage-gated N-type calcium channel alpha-1B subunit/Amyloid beta A4 precursor protein-binding family A member 1 (Homo sapiens, UniProt Q00975+Q02410); assay type: protein assay
[2] = biological target: T1, Voltage-gated N-type calcium channel alpha-1B subunit/Amyloid beta A4 precursor protein-binding family A member 1; assay type: protein assay; remark: listed apart in the source
Cytochrome P450 2C19 = Cytochrome P450 2C19 (Homo sapiens, UniProt P33261); experiment: Cytochrome panel assay with activity outcomes. Panel member name: p450-cyp2c19 Compounds with AC50 equal or less than 10 uM are considered active; assay type: functional; settings: read-out: AC50
Cytochrome P450 2C9 = Cytochrome P450 2C9 (Homo sapiens, UniProt P11712)
Bcl-2-like protein 10 = biological target: T2, Bcl-2-like protein 10 (Homo sapiens, UniProt Q9HD36); experiment: displacers of TR3 peptide from Bcl-B, primary screen, selectivity assay for Bfl-1 inhibitor project, biochemical, fluorescence polarization, FITC-TR3 peptide (AID 748);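 also: fluorescence polarization from a fluorescein-labelled TR3 peptide binding purified Bcl-B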
T2 sequence (Q9HD36 whole entry): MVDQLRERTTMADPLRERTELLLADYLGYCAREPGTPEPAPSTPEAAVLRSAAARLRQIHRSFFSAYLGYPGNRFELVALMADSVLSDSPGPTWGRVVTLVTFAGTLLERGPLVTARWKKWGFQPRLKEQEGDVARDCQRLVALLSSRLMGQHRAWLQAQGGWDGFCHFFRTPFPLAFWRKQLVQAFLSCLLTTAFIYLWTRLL

[3] = biological target: Induced myeloid leukemia cell differentiation protein Mcl-1 (Homo sapiens, UniProt Q07820); assay type: functional
Prothrombin = Prothrombin (Homo sapiens, UniProt P00734); experiment: Thrombin 1536 HTS Dose Response Confirmation. [Related pubchem assays: 1046 (Thrombin 1536 HTS; hits were confirmed in this assay)]; assay type: functional
Insulin-degrading enzyme [4] = biological target: T3, Insulin-degrading enzyme (Homo sapiens, UniProt P14735); experiment: activators of recombinant IDE enzyme, dose response, counter-screen for IDE activator project, biochemical, fluorescence polarization (AID 588681)
T3 sequence (P14735 whole entry): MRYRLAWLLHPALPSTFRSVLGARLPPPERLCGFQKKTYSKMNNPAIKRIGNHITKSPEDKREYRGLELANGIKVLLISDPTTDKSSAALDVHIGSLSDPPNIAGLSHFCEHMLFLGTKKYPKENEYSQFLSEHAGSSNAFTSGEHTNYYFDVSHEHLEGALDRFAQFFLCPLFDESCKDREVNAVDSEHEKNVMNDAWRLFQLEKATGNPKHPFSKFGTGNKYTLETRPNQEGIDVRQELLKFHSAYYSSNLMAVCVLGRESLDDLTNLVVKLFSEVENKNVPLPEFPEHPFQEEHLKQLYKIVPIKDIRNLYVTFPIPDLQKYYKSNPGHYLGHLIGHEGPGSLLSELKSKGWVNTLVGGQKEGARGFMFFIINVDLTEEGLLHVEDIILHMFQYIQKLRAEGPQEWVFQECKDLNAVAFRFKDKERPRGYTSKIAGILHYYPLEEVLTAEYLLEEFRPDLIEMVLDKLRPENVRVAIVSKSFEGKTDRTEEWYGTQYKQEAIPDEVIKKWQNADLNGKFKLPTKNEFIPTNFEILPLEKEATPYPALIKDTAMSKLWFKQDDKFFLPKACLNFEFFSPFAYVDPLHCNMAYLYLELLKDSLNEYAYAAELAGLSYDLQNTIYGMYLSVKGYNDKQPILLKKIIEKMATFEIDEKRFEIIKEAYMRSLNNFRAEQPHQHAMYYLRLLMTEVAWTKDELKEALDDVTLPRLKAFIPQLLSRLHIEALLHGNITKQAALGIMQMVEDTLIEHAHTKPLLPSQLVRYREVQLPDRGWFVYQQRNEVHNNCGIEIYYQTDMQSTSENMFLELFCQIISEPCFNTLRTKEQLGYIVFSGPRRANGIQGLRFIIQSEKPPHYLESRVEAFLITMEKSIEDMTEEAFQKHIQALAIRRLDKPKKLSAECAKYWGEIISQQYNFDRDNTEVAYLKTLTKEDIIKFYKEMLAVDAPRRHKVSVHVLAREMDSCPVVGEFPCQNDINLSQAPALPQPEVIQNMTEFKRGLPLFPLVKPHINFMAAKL

Insulin-degrading enzyme [5] = biological target: T3, Insulin-degrading enzyme; experiment: activators of endogenous IDE in HEK cells, dose response, cell-based, fluorescence polarization (AID 588439); assay type: functional
HEK293 [6] = experiment: HEK cell cytotoxicity by LDH release, dose response, cytotoxicity control for IDE activator project, fluorescence, HEK cells (AID 588440); assay type: functional, cell-based; settings: Homo sapiens;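 also: cytotoxicity by LDH release measuring loss of membrane integrity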
HEK293 [7] = experiment: optical interference in Abeta FP readout, dose response, artefact control for IDE activator project, biochemical, fluorescence polarization (AID 588442); assay type: functional, cell-based; settings: Homo sapiens
[8] = biological target: T4, Corticotropin-releasing factor receptor 2/Corticotropin-releasing factor-binding protein (Homo sapiens, UniProt P24387+Q13324); experiment: Dose Response confirmation of uHTS hits for small molecule antagonists of the CRF-binding protein and CRF-R2 receptor complex.; assay type: functional; settings: read-out: IC50_Mean
T4 sequence (Q13324 whole entry): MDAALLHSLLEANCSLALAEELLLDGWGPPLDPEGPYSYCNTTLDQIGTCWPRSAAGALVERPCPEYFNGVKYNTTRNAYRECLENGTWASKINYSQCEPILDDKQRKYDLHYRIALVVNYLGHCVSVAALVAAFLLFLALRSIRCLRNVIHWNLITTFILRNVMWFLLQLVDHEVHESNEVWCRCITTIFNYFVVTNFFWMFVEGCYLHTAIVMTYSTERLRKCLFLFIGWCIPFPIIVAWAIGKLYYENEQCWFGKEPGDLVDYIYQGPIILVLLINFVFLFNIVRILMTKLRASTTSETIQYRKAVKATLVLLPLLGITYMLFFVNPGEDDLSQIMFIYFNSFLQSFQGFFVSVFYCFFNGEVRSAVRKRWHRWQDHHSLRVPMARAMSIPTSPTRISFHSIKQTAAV
T4 sequence (P24387 whole entry): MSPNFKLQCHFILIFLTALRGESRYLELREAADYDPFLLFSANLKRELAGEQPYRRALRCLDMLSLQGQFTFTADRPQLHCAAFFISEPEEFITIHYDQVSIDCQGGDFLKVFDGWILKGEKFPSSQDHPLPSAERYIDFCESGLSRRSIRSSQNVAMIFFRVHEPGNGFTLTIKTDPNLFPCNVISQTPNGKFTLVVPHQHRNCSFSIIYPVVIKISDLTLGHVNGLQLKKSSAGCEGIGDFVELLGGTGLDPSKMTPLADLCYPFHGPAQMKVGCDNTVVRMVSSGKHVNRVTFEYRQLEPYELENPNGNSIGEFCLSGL

[9] = biological target: T4, Corticotropin-releasing factor receptor 2/Corticotropin-releasing factor-binding protein; experiment: activators of CRF receptor 2 with binding protein – uHTS hits, confirmation (AID 602473); assay type: functional; settings: read-out: EC50_Mean
[10] = CRF-BP/CRF-R2 complex antagonists, dose response, cell-based, uHTS hits, 384-well (AID 651639); assay type: functional, Homo sapiens; settings: read-out: IC50_Mean
[11] = inhibitors of HIV Env-driven cell fusion, dose response, cherry-pick (AID 652057); assay type: functional, cell-based
[12] = ZM109 Env clade C HIV-1 fusion inhibitors, dose response, HeLa effector, CEM target cells, luciferase, cherry-pick (AID 652058); assay type: functional, cell-based
Paired box protein Pax-8 = Paired box protein Pax-8 (Homo sapiens, UniProt Q06710); experiment: inhibitors of PAX8-driven TPO luciferase reporter, dose response, RMG-I cells, cherry-pick (AID 687027); assay type: functional, cell-based;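 also: luciferase reporter driven by Pax8 target thyroperoxidase promoter measured by SteadyGlo luminescence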
[13] = inhibitors of clade B AD8 Env fusion, dose response, cell-based, cherry-pick (AID 652062); assay type: functional;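 also: luciferase signal from cell-cell fusion driven by HIV-1 clade B AD8 Env; potency is for inhibitors of fusion seen as a drop in luminescence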
[14] = NIH:OVCAR-3 ovarian cancer cell cytotoxicity, dose response, PAX8 inhibitor project, plate reader, dry powder samples (AID 743044); assay type: functional, cell-based

T1 sequence (Q00975 whole entry): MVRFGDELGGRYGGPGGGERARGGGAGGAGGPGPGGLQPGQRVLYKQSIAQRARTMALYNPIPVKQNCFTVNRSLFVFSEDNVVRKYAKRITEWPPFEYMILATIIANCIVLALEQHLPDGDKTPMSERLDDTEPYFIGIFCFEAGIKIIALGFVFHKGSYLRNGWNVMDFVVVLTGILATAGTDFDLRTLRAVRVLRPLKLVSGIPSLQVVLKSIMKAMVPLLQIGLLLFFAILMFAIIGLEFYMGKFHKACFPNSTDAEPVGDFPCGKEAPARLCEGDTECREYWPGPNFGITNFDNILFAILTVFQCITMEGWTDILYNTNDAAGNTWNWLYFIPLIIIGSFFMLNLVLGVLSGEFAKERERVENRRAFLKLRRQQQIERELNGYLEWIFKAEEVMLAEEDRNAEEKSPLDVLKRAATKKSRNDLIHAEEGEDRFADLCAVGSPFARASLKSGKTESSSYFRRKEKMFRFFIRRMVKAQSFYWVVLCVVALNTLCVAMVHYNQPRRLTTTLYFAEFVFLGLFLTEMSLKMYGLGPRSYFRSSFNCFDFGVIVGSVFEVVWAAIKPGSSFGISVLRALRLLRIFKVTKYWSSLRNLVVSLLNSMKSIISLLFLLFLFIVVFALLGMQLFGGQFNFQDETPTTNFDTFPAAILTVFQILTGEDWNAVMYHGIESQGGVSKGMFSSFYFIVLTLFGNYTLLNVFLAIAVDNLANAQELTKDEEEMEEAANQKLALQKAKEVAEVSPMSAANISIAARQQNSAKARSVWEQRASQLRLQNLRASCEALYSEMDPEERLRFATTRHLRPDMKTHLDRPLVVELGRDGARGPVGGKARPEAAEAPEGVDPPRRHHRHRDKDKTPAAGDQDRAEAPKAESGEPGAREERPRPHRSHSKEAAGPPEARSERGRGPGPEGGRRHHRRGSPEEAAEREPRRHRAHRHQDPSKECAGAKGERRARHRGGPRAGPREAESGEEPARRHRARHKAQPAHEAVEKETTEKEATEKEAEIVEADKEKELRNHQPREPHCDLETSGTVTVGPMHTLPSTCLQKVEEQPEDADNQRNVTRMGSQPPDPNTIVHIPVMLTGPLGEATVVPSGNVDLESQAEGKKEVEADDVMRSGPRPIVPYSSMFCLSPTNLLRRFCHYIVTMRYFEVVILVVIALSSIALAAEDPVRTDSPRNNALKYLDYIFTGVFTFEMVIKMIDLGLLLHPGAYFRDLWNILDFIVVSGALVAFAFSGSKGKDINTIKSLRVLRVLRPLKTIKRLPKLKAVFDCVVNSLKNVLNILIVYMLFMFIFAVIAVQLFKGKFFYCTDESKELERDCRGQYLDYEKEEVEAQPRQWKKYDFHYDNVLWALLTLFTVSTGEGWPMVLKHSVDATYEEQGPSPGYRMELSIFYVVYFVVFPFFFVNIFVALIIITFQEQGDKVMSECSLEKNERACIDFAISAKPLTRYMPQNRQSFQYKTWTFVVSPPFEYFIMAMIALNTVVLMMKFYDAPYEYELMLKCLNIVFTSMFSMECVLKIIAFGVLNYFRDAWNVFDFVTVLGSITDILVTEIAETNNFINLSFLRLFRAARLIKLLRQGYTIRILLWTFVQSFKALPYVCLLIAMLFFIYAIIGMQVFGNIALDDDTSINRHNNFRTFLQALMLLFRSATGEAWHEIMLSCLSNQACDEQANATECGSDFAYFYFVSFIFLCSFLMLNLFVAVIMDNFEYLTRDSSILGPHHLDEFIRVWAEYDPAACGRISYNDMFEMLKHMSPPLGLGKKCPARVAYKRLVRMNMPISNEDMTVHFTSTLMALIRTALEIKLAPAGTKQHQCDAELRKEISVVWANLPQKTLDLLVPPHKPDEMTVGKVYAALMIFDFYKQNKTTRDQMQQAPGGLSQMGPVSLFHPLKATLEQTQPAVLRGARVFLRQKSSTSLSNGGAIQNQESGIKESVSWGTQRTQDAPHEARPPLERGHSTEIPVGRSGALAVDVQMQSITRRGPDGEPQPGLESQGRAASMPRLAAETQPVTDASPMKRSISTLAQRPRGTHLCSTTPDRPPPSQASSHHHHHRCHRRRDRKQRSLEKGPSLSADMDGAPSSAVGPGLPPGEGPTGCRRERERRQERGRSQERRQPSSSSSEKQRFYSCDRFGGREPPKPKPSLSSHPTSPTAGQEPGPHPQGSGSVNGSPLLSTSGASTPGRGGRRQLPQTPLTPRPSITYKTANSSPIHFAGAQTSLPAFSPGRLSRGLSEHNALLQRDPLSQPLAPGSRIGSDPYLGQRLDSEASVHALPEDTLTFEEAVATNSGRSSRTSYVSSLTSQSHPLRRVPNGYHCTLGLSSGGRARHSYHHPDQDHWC
T1 sequence (Q02410 whole entry): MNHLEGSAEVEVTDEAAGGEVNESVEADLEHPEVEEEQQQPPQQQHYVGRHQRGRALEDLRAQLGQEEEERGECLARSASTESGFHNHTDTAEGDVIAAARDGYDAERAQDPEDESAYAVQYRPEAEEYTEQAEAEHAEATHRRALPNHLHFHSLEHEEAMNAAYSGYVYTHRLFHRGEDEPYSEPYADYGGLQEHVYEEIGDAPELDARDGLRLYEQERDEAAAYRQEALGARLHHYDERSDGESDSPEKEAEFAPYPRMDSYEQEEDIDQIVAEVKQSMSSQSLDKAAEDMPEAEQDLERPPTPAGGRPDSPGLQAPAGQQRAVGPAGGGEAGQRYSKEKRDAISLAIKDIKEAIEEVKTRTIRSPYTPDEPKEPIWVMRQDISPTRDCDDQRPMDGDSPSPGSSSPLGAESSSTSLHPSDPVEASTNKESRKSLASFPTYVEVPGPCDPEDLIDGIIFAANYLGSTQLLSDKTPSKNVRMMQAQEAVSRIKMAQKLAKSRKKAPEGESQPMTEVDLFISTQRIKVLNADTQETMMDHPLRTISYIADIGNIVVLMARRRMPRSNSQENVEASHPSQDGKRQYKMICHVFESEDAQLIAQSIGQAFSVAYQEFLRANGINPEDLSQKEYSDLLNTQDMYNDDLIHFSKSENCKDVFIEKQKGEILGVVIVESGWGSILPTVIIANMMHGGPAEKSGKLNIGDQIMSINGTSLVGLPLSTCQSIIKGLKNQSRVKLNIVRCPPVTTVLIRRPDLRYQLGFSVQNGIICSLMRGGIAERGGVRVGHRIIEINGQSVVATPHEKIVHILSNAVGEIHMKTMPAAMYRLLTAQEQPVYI
Chain of Cytochrome P450 2C19 (P33261 whole entry): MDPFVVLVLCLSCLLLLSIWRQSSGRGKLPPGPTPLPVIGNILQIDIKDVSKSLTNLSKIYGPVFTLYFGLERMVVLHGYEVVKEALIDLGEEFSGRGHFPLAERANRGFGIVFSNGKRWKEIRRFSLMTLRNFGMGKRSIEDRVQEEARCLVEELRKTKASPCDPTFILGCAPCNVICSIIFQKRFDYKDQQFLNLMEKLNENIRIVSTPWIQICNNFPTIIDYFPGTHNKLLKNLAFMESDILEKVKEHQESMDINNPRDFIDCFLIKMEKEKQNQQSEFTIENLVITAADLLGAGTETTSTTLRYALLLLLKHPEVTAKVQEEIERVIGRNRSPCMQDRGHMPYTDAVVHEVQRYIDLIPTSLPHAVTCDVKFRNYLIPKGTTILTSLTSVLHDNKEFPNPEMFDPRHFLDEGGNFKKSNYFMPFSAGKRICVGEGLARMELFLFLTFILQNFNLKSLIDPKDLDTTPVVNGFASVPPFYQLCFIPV
Chain of Cytochrome P450 2C9 (P11712 whole entry): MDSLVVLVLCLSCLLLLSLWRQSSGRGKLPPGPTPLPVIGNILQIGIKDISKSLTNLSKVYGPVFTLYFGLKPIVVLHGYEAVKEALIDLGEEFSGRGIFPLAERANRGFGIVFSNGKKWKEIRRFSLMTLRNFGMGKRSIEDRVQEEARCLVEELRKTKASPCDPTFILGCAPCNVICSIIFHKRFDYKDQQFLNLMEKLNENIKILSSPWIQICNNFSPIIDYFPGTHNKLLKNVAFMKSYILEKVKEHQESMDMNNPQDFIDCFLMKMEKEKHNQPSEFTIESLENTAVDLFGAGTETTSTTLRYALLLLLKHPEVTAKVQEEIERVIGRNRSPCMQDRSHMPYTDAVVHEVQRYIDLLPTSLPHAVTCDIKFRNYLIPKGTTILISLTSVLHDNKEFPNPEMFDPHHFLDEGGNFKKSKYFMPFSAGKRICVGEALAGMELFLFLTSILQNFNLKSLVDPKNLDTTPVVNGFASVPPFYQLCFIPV
Chain of Paired box protein Pax-8 (Q06710 whole entry, the tested form may be a part): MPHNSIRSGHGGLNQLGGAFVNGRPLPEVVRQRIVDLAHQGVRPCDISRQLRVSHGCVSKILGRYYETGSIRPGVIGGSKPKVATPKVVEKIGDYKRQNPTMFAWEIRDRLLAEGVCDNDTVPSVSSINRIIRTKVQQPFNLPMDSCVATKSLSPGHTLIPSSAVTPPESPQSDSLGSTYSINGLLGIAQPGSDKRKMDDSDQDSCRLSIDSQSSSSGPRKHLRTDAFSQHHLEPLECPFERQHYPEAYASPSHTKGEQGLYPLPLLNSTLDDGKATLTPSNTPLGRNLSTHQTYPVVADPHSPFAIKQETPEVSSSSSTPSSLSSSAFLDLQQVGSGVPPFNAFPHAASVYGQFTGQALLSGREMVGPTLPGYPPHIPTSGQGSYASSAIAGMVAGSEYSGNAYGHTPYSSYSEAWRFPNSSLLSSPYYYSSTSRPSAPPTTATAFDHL
Chain of Induced myeloid leukemia cell differentiation protein Mcl-1 (Q07820 whole entry): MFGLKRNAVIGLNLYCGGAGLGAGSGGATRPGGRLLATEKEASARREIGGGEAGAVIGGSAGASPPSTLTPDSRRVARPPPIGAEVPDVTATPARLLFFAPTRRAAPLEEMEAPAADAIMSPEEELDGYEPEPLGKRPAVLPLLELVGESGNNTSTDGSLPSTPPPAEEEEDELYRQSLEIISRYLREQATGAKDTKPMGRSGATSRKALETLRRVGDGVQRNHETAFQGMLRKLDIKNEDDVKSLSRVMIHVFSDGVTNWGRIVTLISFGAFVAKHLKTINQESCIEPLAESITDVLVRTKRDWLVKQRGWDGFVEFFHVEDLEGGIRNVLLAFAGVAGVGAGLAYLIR

## COc1ccc(CC(=O)Nc2ccc(-c3nnc(-c4ccccc4)o3)cc2)cc1
[1]
  IC50: 8.88 µM (active)
[2]
  IC50: > 50 µM (inactive)
Cytochrome P450 2C19
  AC50: 1.26 µM (inconclusive)
Cytochrome P450 2C9
  AC50: 0.224 µM (inconclusive)

## Cc1ccc(OCC(=O)Nc2ccc(N3CCCC3)cc2)cc1C
Bcl-2-like protein 10
  IC50: 40.8 µM (active)
[3]
  IC50: 6.68 µM (active)

## O=C(COC(=O)CCC(=O)c1cccs1)Nc1ccccc1[N+](=O)[O-]
Prothrombin
  IC50: 6.93 µM (active)

## COc1ccc(OC)c(C(=O)COC(=O)CN2C(=O)NC3(CCCCC3C)C2=O)c1 (centres undefined)
Insulin-degrading enzyme [4]
  EC50: > 54.7 µM (inactive)
Insulin-degrading enzyme [5]
  EC50: > 54.7 µM (inactive)
HEK293 [6]
  IC50: > 89.2 µM (inactive)
HEK293 [7]
  EC50: > 55.9 µM (inactive)

## CN(C)c1ccc(C=C2C(=O)OC(C)(C)OC2=O)cc1
[8]
  IC50: 5.16 µM (active)
[9]
  EC50: > 53 µM (inactive)
[10]
  IC50: 7.91 µM (active)

## CN(c1ccccc1)S(=O)(=O)c1cccc(NC(=O)COc2cccc([N+](=O)[O-])c2)c1
Insulin-degrading enzyme [4]
  EC50: > 54.7 µM (inactive)
Insulin-degrading enzyme [5]
  EC50: > 54.7 µM (inactive)
HEK293 [6]
  IC50: > 89.2 µM (inactive)
HEK293 [7]
  EC50: > 55.9 µM (inactive)
[8]
  IC50: > 23.6 µM (inactive)
[9]
  EC50: > 53 µM (inactive)
[10]
  IC50: > 20 µM (inactive)

## Cn1c(C(C#N)C2=C(Cl)C(=O)N(c3ccccc3)C2=O)nc2ccccc21 (centres undefined)
Bcl-2-like protein 10
  IC50: 16.5 µM (active)

## C[C@@H]1CN([C@@H](C)CO)C(=O)Cc2cc(NS(=O)(=O)c3cccs3)ccc2O[C@H]1CN(C)Cc1ccc(C(F)(F)F)cc1
[11]
  AC50: 10.1 µM (active)
[12]
  AC50: 1.39 µM (active)
Paired box protein Pax-8
  AC50: 5.33 µM (active)
[13]
  AC50: 25.8 µM (active)
[14]
  AC50: 32.8 µM (active)

## COc1ccc(N2C(=O)/C(=C/Nc3ccccc3)c3ccccc3C2=O)cc1
Prothrombin
  IC50: > 50 µM (not active)

## CCS(=O)(=O)NCc1ccc2c(c1)cc(C)n2C
Bcl-2-like protein 10
  IC50: > 50 µM (inactive)
